# From article PMC5983681, “PIEZO1 Channel Is a Potential Regulator of Synovial Sarcoma Cell-Viability” (International Journal of Molecular Sciences, 2018)
# Biological target: T1, PIEZO1 (SW982 cells) (Homo sapiens, UniProt Q92508)
# T1 construct: endogenous full-length channel in native SW982 cells; response lost on PIEZO1 siRNA knockdown
# Experiment: Fura-2 Ca2+ imaging
# Assay type: cell-based
# Settings: agonist; SBS with […] Ca2+, pH […]-26 °C; native SW982 cells, […] tested; bound only; read-out: apparent EC50
# T1 sequence (Q92508 whole entry): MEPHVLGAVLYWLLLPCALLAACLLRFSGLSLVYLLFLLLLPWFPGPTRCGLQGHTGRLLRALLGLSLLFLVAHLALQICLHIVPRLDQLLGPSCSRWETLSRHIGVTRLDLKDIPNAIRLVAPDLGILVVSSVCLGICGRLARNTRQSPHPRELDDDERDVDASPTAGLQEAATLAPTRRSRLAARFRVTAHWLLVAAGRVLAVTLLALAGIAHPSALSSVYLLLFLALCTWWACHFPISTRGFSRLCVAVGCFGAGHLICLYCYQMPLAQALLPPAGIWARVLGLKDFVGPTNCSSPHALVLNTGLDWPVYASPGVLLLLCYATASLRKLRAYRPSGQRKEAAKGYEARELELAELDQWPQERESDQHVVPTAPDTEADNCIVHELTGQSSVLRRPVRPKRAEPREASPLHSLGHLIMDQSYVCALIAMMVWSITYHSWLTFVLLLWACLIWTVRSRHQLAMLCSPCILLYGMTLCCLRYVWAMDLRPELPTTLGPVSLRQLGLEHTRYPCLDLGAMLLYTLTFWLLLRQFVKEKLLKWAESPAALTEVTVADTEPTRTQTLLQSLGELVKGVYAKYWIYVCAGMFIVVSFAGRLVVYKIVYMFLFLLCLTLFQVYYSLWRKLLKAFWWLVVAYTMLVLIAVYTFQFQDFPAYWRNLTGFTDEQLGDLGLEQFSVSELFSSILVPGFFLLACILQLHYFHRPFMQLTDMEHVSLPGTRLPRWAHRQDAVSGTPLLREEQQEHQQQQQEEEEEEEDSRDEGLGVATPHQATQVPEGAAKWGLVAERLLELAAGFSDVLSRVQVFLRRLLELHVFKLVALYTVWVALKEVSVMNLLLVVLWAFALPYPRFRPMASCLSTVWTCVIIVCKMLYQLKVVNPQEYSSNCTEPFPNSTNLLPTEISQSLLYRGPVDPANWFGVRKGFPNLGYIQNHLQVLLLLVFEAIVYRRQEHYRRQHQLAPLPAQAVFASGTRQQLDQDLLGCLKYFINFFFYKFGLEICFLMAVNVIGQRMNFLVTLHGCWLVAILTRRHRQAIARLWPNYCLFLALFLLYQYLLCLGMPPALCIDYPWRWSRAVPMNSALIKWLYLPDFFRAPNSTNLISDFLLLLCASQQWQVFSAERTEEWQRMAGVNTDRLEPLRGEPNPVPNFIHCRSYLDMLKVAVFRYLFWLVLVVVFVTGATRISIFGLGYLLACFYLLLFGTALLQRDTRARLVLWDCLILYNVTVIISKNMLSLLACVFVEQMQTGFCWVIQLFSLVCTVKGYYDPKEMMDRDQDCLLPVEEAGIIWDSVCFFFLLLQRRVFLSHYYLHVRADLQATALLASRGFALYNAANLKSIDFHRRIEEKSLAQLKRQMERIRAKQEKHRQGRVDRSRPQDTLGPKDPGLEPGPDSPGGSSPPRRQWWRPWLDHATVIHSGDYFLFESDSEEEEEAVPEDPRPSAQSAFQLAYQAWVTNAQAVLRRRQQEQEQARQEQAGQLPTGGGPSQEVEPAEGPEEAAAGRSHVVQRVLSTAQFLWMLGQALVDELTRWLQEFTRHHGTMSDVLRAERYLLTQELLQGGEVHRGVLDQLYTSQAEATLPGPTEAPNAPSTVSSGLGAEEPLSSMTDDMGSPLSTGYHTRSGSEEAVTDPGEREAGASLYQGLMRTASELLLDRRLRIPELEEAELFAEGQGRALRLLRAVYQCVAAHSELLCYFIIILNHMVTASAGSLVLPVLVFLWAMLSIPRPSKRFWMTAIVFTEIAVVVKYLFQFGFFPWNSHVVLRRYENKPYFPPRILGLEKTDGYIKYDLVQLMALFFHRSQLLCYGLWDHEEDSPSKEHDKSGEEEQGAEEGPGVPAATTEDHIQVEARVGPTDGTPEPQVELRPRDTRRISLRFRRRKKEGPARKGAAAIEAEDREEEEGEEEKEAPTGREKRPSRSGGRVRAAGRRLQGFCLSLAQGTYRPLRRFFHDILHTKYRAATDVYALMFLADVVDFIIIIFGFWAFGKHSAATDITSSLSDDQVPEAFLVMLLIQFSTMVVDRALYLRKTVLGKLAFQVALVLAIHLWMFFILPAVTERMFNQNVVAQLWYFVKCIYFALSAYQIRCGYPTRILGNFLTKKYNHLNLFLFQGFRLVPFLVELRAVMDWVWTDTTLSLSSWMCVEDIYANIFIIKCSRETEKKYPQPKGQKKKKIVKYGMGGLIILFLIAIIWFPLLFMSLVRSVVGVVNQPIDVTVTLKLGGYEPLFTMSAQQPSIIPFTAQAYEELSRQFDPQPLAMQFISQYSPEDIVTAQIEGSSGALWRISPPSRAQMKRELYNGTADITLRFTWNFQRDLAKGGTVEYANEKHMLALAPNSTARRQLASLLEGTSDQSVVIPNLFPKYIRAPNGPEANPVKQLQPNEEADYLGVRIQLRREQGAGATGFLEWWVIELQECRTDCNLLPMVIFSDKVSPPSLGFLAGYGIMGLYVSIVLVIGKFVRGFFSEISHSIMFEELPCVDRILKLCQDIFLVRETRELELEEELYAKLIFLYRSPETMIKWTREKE
smiles,measurement,value
"Clc1cccc(Cl)c1CSc1nnc(-c2cnccn2)s1 [Yoda1, 2-[5-[[(2,6-Dichlorophenyl)methyl]thio]-1,3,4-thiadiazol-2-yl]-pyrazine]",EC50,< 1000 nM
